Experimental data reported in ChEMBL document CHEMBL1129447 (J Med Chem, 1996).
pEC50, pKi: −log10 of the molar value.

Key:
Adenosine receptor A1 [1] = molecular target: T1, Adenosine receptor A1 (Rattus norvegicus, UniProt P25099); assay: Adenosine A1 receptor mediated negative chronotropic activity in spontaneously beating rat atria; assay type: functional
T1 sequence (P25099 whole entry): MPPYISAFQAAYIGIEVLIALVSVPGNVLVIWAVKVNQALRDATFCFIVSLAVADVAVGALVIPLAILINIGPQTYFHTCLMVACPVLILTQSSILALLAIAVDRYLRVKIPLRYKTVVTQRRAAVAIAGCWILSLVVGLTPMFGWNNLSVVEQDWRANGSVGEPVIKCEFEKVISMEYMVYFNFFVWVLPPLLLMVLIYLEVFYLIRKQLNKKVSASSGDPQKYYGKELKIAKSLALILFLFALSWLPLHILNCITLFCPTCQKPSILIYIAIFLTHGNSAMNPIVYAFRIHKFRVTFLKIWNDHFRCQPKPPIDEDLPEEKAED

Adenosine receptor A1 [2] = molecular target: T1, Adenosine receptor A1
Description: Displacement of [3H]CHA from Adenosine A1 receptor of rat brain

Adenosine receptor A2a [3] = molecular target: T2, Adenosine receptor A2a (Rattus norvegicus, UniProt P30543)
T2 sequence (P30543 whole entry): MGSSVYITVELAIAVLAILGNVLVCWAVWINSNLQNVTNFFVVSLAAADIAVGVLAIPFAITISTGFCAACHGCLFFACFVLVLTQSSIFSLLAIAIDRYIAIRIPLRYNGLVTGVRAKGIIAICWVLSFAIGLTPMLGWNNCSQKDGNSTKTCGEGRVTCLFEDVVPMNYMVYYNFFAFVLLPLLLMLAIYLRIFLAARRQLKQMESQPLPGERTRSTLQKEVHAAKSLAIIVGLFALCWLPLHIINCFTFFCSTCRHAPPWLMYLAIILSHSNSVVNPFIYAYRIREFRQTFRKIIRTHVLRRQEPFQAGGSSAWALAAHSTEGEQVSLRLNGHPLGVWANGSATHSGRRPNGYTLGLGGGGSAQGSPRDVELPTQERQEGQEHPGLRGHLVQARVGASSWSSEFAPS
Description: Displacement of [3H]-CGS- 51680 from Adenosine A2A receptor of rat striatum.

Adenosine receptor A2a [4] = molecular target: T2, Adenosine receptor A2a; remark: listed apart in the source
Description: Vasorelaxation as Adenosine A2A receptor activity in rat aorta

| pEC50 (Adenosine receptor A1 [1]) | pKi (Adenosine receptor A1 [2]) | pKi (Adenosine receptor A2a [3]) | pEC50 (Adenosine receptor A2a [4]) | Structure (SMILES) |
| --- | --- | --- | --- | --- |
| < 9.00 | 7.01 | – | – | CCCCC#Cc1nc(N)c2ncn([C@@H]3O[C@H](CO)[C@@H](O)[C@H]3O)c2n1 |
| < 9.00 | – | – | – | CCCCC#Cc1nc(N)c2ncn([C@@H]3O[C@H](C(=O)NCC)[C@@H](O)[C@H]3O)c2n1 |
| – | 6.48 | 7.85 | – | CCCC/C=C/c1nc(N)c2ncn([C@@H]3O[C@H](CO)[C@@H](O)[C@H]3O)c2n1 |
| < 9.00 | 6.21 | 6.12 | – | CCCC/C=C\c1nc(N)c2ncn([C@@H]3O[C@H](CO)[C@@H](O)[C@H]3O)c2n1 |
| < 9.00 | 5.99 | 8.46 | 6.24 | CCNC(=O)[C@H]1O[C@@H](n2cnc3c(N)nc(/C=C/CCCc4ccccc4)nc32)[C@H](O)[C@@H]1O |
| < 9.00 | – | – | – | CCNC(=O)[C@H]1O[C@@H](n2cnc3c(N)nc(C#CCCCc4ccccc4)nc32)[C@H](O)[C@@H]1O |
| < 9.00 | < 9.00 | 6.87 | 9.00 | CCCCCCc1nc(N)c2ncn([C@@H]3O[C@H](C(=O)NCC)[C@@H](O)[C@H]3O)c2n1 |
| < 9.00 | < 9.00 | 7.29 | < 9.00 | CCNC(=O)[C@H]1O[C@@H](n2cnc3c(N)nc(/C=C\CCCc4ccccc4)nc32)[C@H](O)[C@@H]1O |

Continued, compound first:

| Structure (SMILES) | pEC50 (Adenosine receptor A1 [1]) | pKi (Adenosine receptor A1 [2]) | pKi (Adenosine receptor A2a [3]) | pEC50 (Adenosine receptor A2a [4]) |
| --- | --- | --- | --- | --- |
| CCCC/C=C/c1nc(N)c2ncn([C@@H]3O[C@H](C(=O)NCC)[C@@H](O)[C@H]3O)c2n1 | < 9.00 | 6.60 | 8.80 | 6.23 |
| CCCC/C=C\c1nc(N)c2ncn(C3O[C@H](C(=O)NCC)[C@@H](O)[C@H]3O)c2n1 (stereo partly drawn) | < 9.00 | 6.02 | 7.15 | 6.17 |
| CCNC(=O)[C@H]1O[C@@H](n2cnc3c(N)nc(C#Cc4ccccc4)nc32)[C@H](O)[C@@H]1O | < 9.00 | – | – | < 9.00 |
| CCCCCCc1nc(N)c2ncn(C3O[C@H](CO)[C@@H](O)[C@H]3O)c2n1 (stereo partly drawn) | < 9.00 | < 9.00 | < 9.00 | – |
| CCNC(=O)[C@H]1O[C@@H](n2cnc3c(N)nc(/C=C/c4ccccc4)nc32)[C@H](O)[C@@H]1O | 6.38 | 6.93 | 6.63 | 6.71 |
